# Reference: patent US10696947B2, “Culture medium composition for maturating cardiomyocytes derived from pluripotent mammalian stem cells” (Ncardia B.V., priority 2013, dated 2020)
# “Also recorded” adds a separate entry of the source.
# Assays:
# Assay type in all cases: cell-based
# [1] = tested on: foetal-like (immature) cardiomyocytes derived from PESC; assay: Metabolic profile by TMRM assay (flow cytometry); settings: 100 ng/ml T3 in culture medium, 17 days, 5 nM TMRM, compared to medium lacking T3
# Experimental: Foetal-like (immature) cardiomyocytes derived from PESC in in vitro culture were divided in two experimental groups. The first group was exposed to a culture medium composition as taught herein but which lacked T3 (control situation). The second group was exposed to a culture medium composition as taught herein but which comprised T3 (100 ng/ml). Both groups were incubated in their respective culture medium composition for 17 days. An amount of 5 nM TMRM (Invitrogen) was added in the respective media the day before measurement. Cells were dissociated using 5× Tryple, but with TMRM included in all solutions and also present during measurement, Measurements were performed on a Miltenyi MACSquant VYB flow cytometer.
# [2] = tested on: foetal-like (immature) cardiomyocytes derived from human pluripotent embryonic stem cells (PESCs); assay: Morphological features by alpha-actinin immunofluorescence; settings: 100 ng/ml T3 in culture medium composition, 5 days, compared to medium lacking T3
# Experimental: Foetal-like (immature) cardiomyocytes derived from PESC in in vitro culture were divided in two experimental groups. The first group was exposed to a culture medium composition as taught herein but which lacked T3 (control situation). The second group was exposed to a culture medium composition as taught herein but which comprised T3 (100 ng/ml). Both groups were incubated in their respective culture medium composition for 5 days, At the term of the treatment, cardiomyocytes from both experimental groups were fixed in 4% paraformaldehyde, permeabilised with phosphate buffer saline (PBS)/0.1% Triton X-100 (Sigma-Aldrich), and blocked with phosphate buffer saline (PBS)/0.1% Triton X-100 (Sigma-Aldrich) 1% BSA. Samples were incubated 1-hour at room temperature with a primary antibodies specific for the following: alpha-actinin (Eptomics Ab 68167) (at a concentration of 1/400), The primary antibody was detected with either Cy3- or Alexa-Fluor 647-conjugated secondary antibodies (at a concentration of 1/250). Images were captured using either a Leica SP5-STED or a Leica SP5 confocal laser-scanning microscope (Leica Microsystems).
# [3] = tested on: foetal-like (immature) cardiomyocytes derived from human pluripotent embryonic stem cells (PESCs); assay: Electrophysiological properties by perforated patch clamp; settings: 100 ng/ml T3 in culture medium, 12 days, compared to medium lacking T3
# Experimental: Foetal-like (immature) cardiomyocytes derived from PESC in in vitro culture were divided in two experimental groups. The first group was exposed to a culture medium composition as taught herein but which lacked T3 (control situation). The second group was exposed to a culture medium composition as taught herein but which comprised T3 (100 ng/ml). Both groups were incubated in their respective culture medium composition for 12 days. At the term of the treatment, foetal-like (immature) cardiomyocytes from both experimental groups were subjected to a patch clamp procedure.
# Patch clamp electrophysiology was performed as described by Bellin, M. et al. EMBO J 32, 3161-3175 (2013)). using minor modifications. Action potentials from small groups of cells (5-10 cells) were measured with the perforated patch clamp technique using an Axopatch 200b amplifier (Molecular Devices) and low resistance patch pipettes (1.5-2.5 MΩ). Data acquisition and analyses of action potentials were performed with pClamp 10 (axon instruments) and custom made software. Action Potentials were corrected for the calculated liquid junction potential (−15 mV).
# Action potentials from spontaneous beating cells were measured at […] using a modified Tyrode's solution containing (in mM): 140 NaCl, 5.4 KCl, 1.8 CaCl2, 1.0 MgCl2, 5.5 glucose, 5.0 HEPES; pH7.2 (NaOH). The pipette solution contained (in mM): 125 K-gluconate, 20 KCl, 5 NaCl, 0.22 amphotericin-B, 10 HEPES; pH 7.2 (KOH). The resting membrane potential (RMP), maximal upstroke velocity (dV/dt max), AP amplitude in mV (APA), and AP duration in milli-seconds (APD) at 20, 50 and 90% repolarization (APD50, and APD90, respectively) were analyzed. Upstroke velocity was calculated from the first derivative of the change in voltage as a function of time. Thus the maximum upstroke velocity (dV/dt max) is equal to the maximum positive value of the first derivative of the action potential. Data from 10 consecutive action potentials were averaged.
smiles,measurement,setting,value
"N[C@@H](Cc1cc(I)c(Oc2ccc(O)c(I)c2)c(I)c1)C(=O)O [T3, triiodothyronine]",mitochondrial activity (TMRM-associated orange fluorescence),[1],enhanced mitochondrial activity; also recorded: increased mitochondrial activity
same,morphological features (maturation into adult-like cardiomyocytes),[2],"polarization of cells, improved sarcomeric organization, and elongated shape"
same,amplitude of the action potential,[3],greater amplitude of the action potential; also recorded: increased amplitude of the action potential
same,maximal upstroke velocity (dV/dt max),[3],greater maximal upstroke velocity; also recorded: increased maximum upstroke velocity
same,resting membrane potential,[3],lower resting membrane potential
